Experimental data: PMC6199744, “Development of Chemical Proteomics for the Folateome and Analysis of the Kinetoplastid Folateome” (ACS Infectious Diseases, 2018)
“And” between values parts separate entries of the source, which are not always exact repeats. Identical values can stand only once. Like-named read-outs stand apart in the source and are kept apart here.

System: T. brucei lysate proteins
Type: binding, Trypanosoma brucei

Compound: NCCCNc1ccc(C(=O)NC(CCC(=O)O)C(=O)O)cc1 (stereo not shown) [compound 7]
- fold change vs vehicle control: 0.96 and 1.1 and 0.99
- fold change (protein CZB00000046.1 HA-UBIQUITIN, vehicle control = 1): 0.74
- fold change (protein RHS6A, vehicle control = 1): 0.95
- fold change vs vehicle control (protein TB09.160.3270 ATP-DEPENDENT DEAD BOX HELICASE, PUTATIVE, vehicle control = 1): 0.89
- fold change (protein TB09.160.3710 PRO[…] NUCLEAR ANTIGEN (PCNA), PUTATIVE, vehicle control = 1): 0.81
- fold change vs vehicle control (protein TB09.160.4200 60S ACIDIC RIBOSOMAL PROTEIN, PUTATIVE, vehicle control = 1): 0.64
- fold change vs vehicle control (protein TB09.160.4250 TR[…], vehicle control = 1): 0.94
- fold change vs vehicle control (protein TB09.211.2630 60S RIBOSOMAL PROTEIN L23, PUTATIVE, vehicle control = 1): 0.98
- fold change (protein TB09.211.4460 ADP-RI[…], PUTATIVE, vehicle control = 1): 0.93
- fold change (protein TB09.211.4513 KIN[…] PROTEIN KMP-11, vehicle control = 1): 0.88
- fold change (protein TB09.211.4760 METACASPASE 5, PUTATIVE, vehicle control = 1): 1.1
- fold change vs vehicle control (protein TB09.244.2780 HY[…], CONSERVED, vehicle control = 1): 1.54
- fold change (protein TB11.01.0450 PROTEIN PHOSPHATASE 1, PUTATIVE, vehicle control = 1): 1
- fold change vs vehicle control (protein TB11.01.2560 40S RIBOSOMAL PROTEIN SA, PUTATIVE, vehicle control = 1): 0.82
- fold change vs vehicle control (protein TB11.01.3180 GUANINE NUCLEOTIDE-BINDING PROTEIN BETA SUBUNIT-LIKE PROTEIN, vehicle control = 1): 0.93
- fold change vs vehicle control (protein TB11.01.4370 HY[…], CONSERVED, vehicle control = 1): 0.8
- fold change (protein TB11.01.5350 PROFILIN, vehicle control = 1): 0.98
- fold change (protein TB11.01.5860 T-COMPLEX PROTEIN 1, EPSILON SUBUNIT, PUTATIVE, vehicle control = 1): 0.91
- fold change (protein TB11.01.8590 RAB-LIKE 5, SMALL G PROTEIN, vehicle control = 1): 0.85
- fold change (protein TB11.01.8740 PROTEIN PHOSPHATASE 4, PUTATIVE, vehicle control = 1): 0.77
- fold change vs vehicle control (protein TB11.02.2040 HY[…], CONSERVED (ALBA-Domain Protein), vehicle control = 1): 0.84
- fold change vs vehicle control (protein TB11.02.2420 HY[…], CONSERVED, vehicle control = 1): 0.99
- fold change vs vehicle control (protein TB11.02.2640 DYNEIN IN[…] IC78, PUTATIVE, vehicle control = 1): 1.17
- fold change (protein TB11.02.2960 MIT[…] PROTEIN, PUTATIVE, vehicle control = 1): 0.88
- fold change vs vehicle control (protein TB11.02.4170 40S RIBOSOMAL PROTEIN S5, PUTATIVE, vehicle control = 1): 1.18
- fold change (protein TB11.02.4700 14-3-3 PROTEIN, vehicle control = 1): 1
- fold change vs vehicle control (protein TB11.03.0250 C[…], vehicle control = 1): 0.88
- fold change vs vehicle control (protein TB11.03.0530 HY[…], CONSERVED (hy[…] SCD6.10), vehicle control = 1): 1.76
- fold change vs vehicle control (protein TB427TMP.01.0480 HY[…], CONSERVED, vehicle control = 1): 1
- fold change (protein TB427TMP.01.1470 60S RIBOSOMAL PROTEIN L10A, PUTATIVE, vehicle control = 1): 0.84
- fold change vs vehicle control (protein TB427TMP.01.4280 HY[…], CONSERVED, vehicle control = 1): 1.2
- fold change vs vehicle control (protein TB427TMP.01.5680 HY[…], CONSERVED, vehicle control = 1): 0.98
- fold change vs vehicle control (protein TB427TMP.01.5690 DRBD4, vehicle control = 1): 0.89
- fold change (protein TB427TMP.01.5960 MIT[…] PROTEIN, PUTATIVE, vehicle control = 1): 0.93
- fold change vs vehicle control (protein TB427TMP.01.6890 SMALL GTPASE, PUTATIVE, vehicle control = 1): 1.8
- fold change (protein TB427TMP.01.7490 HY[…], CONSERVED, vehicle control = 1): 0.96
- fold change vs vehicle control (protein TB427TMP.01.7530 HY[…], CONSERVED, vehicle control = 1): 1
- fold change (protein TB427TMP.01.8390 HY[…], CONSERVED, vehicle control = 1): 0.96
- fold change (protein TB427TMP.01.8570 DYNEIN LIGHT IN[…] D1BLIC, PUTATIVE, vehicle control = 1): 0.95
- fold change (protein TB427TMP.02.0030 DYNEIN HEAVY CHAIN, PUTATIVE, vehicle control = 1): 0.88
- fold change (protein TB427TMP.02.0460 NUCLEOPORIN, vehicle control = 1): 0.98
- fold change (protein TB427TMP.02.0750 T-COMPLEX PROTEIN 1, ZETA SUBUNIT, PUTATIVE, vehicle control = 1): 1
- fold change (protein TB427TMP.02.0760 DYNEIN HEAVY CHAIN, PUTATIVE, vehicle control = 1): 0.91
- fold change (protein TB427TMP.02.1070 AMINOPEPTIDASE, PUTATIVE, vehicle control = 1): 0.72
- fold change vs vehicle control (protein TB427TMP.02.1085 40S RIBOSOMAL PROTEIN S4, PUTATIVE, vehicle control = 1): 0.78
- fold change (protein TB427TMP.02.1106 NUCLEOBASE/NUCLEOSIDE TRANSPORTER 8 1, vehicle control = 1): 0.95
- fold change vs vehicle control (protein TB427TMP.02.2070 LONG-CHAIN-FATTY-ACID-COA LIGASE, PUTATIVE, vehicle control = 1): 0.95
- fold change vs vehicle control (protein TB427TMP.02.2890 HY[…], CONSERVED, vehicle control = 1): 1.22
- fold change vs vehicle control (protein TB427TMP.02.4300 HY[…], CONSERVED, vehicle control = 1): 1.4
- fold change (protein TB427TMP.02.4550 HY[…], CONSERVED, vehicle control = 1): 0.93
- fold change vs vehicle control (protein TB427TMP.02.5450 GLUCOSE-REGULATED PROTEIN 78, PUTATIVE, vehicle control = 1): 0.97
- fold change (protein TB427TMP.02.5660 HY[…], CONSERVED, vehicle control = 1): 0.82
- fold change (protein TB427TMP.03.0150 HY[…], CONSERVED, vehicle control = 1): 0.91
- fold change (protein TB427TMP.160.2370 HY[…], CONSERVED, vehicle control = 1): 0.91
- fold change vs vehicle control (protein TB427TMP.160.4620 INOSITOL-1(OR 4)-MONOPHOSPHATASE, PUTATIVE, vehicle control = 1): 0.99
- fold change vs vehicle control (protein TB427TMP.160.4630 HY[…], CONSERVED, vehicle control = 1): 0.83
- fold change (protein TB427TMP.160.4770 PROTEIN KINASE, PUTATIVE, vehicle control = 1): 0.89
- fold change (protein TB427TMP.160.5670 HY[…], CONSERVED, vehicle control = 1): 1.47
- fold change (protein TB427TMP.211.0740 P21 ANTIGEN PROTEIN, PUTATIVE, vehicle control = 1): 0.79
- fold change (protein TB427TMP.211.0930 POLYADENYLATE-BINDING PROTEIN 1 (POLY(A)-BINDING PROTEIN 1) (PABP 1), vehicle control = 1): 0.89
- fold change (protein TB427TMP.211.2460 HY[…], CONSERVED, vehicle control = 1): 0.96
- fold change vs vehicle control (protein TB427TMP.211.2570 T-COMPLEX PROTEIN 1, ETA SUBUNIT, PUTATIVE, vehicle control = 1): 0.8
- fold change vs vehicle control (protein TB427TMP.211.3140 HY[…], CONSERVED, vehicle control = 1): 2.05
- fold change vs vehicle control (protein TB427TMP.211.3510 ATP-DEPENDENT DEAD/H RNA HELICASE, PUTATIVE, vehicle control = 1): 0.97
- fold change vs vehicle control (protein TB427TMP.211.4170 HY[…], CONSERVED, vehicle control = 1): 1.18
- fold change vs vehicle control (protein TB427TMP.22.0003 PHOSPH[…], PUTATIVE, vehicle control = 1): 1.32
- fold change (protein TB427TMP.244.2840 HY[…], CONSERVED, vehicle control = 1): 0.93
- fold change (protein TB427TMP.47.0011 HY[…], CONSERVED, vehicle control = 1): 0.87
- fold change vs vehicle control (protein TB427TMP.55.0006 INTR[…] PROTEIN IFT88, vehicle control = 1): 0.91
- fold change vs vehicle control (protein TB427.01.120 RETRO[…] SPOT (RHS) PROTEIN, PUTATIVE, vehicle control = 1): 0.9
- fold change (protein TB427.01.2570 COATOMER BETA SUBUNIT, vehicle control = 1): 0.94
- fold change (protein TB427.01.5030 LEUCINE-RICH REPEAT PROTEIN (LRRP), PUTATIVE, vehicle control = 1): 0.98
- fold change vs vehicle control (protein TB427.02.2970 MIT[…] PROTEIN, PUTATIVE, vehicle control = 1): 1.23
- fold change vs vehicle control (protein TB427.02.3880 HET[…] RIBONUC[…]/F, PUTATIVE, vehicle control = 1): 1.22
- fold change vs vehicle control (protein TB427.03.1210 PROTEIN TRANSPORT PROTEIN SEC24, vehicle control = 1): 1.18
- fold change vs vehicle control (protein TB427.03.3160 POLY(A) POLYMERASE, vehicle control = 1): 1.17
- fold change vs vehicle control (protein TB427.03.3950 HY[…], CONSERVED, vehicle control = 1): 0.95
- fold change vs vehicle control (protein TB427.03.4040 HY[…], CONSERVED (Ankyrinrepeat), vehicle control = 1): 1.73
- fold change vs vehicle control (protein TB427.04.1080 V-TYPE ATPASE, A SUBUNIT, PUTATIVE, vehicle control = 1): 1.34
- fold change (protein TB427.04.1090 ENDOSOMAL INTEGRAL MEMBRANE PROTEIN, PUTATIVE, vehicle control = 1): 1.3
- fold change (protein TB427.04.1300 HY[…], CONSERVED, vehicle control = 1): 0.92
- fold change vs vehicle control (protein TB427.04.1660 MIT[…] PROTEIN, PUTATIVE, vehicle control = 1): 0.89
- fold change (protein TB427.04.310 HY[…], CONSERVED, vehicle control = 1): 0.56
- fold change (protein TB427.04.3890 ATP-DEPENDENT RNA HELICASE, PUTATIVE, vehicle control = 1): 0.88
- fold change (protein TB427.04.420 PHOSPHATIDYLINOSITOL 3-KINASE (TOR2), vehicle control = 1): 0.71
- fold change (protein TB427.04.450 COATOMER ALPHA SUBUNIT, PUTATIVE, vehicle control = 1): 0.89
- fold change (protein TB427.04.5010 CALRETICULIN, PUTATIVE, vehicle control = 1): 0.83
- fold change (protein TB427.04.5200 NUCLEOPORIN (NUP54/57), PUTATIVE, vehicle control = 1): 0.99
